Key:
Type in all cases: cell-based
[1] = test system: HL-60; assay: Growth inhibition assay (MTT), HL-60; details: Homo sapiens, HL-60 cells, 48 hours exposure, read-out: HL-60 IC50 (μM) Mean ± S.E.
Experimental: (§1) Antiproliferative Activity Against Human Normal and Cancer Cell Lines Using Growth Inhibition Assay (GI50)
(§2) The compounds of the invention were subjected to growth inhibition assay. Cells were seeded in 96-well plastic plates and exposed to MPT0L132, MPT0L133, and MPT0L134 for 48 hours. Cell viability was assessed using the 3-(4,5-dimethylthiazol-2-yl)-2,5-diphenyltetrazolium bromide assay. Growth inhibition was expressed as the percentage of surviving cells in drug-treated versus DMSO-treated control cells.

[2] = test system: HCT-116; assay: Growth inhibition assay (MTT), HCT-116; details: Homo sapiens, HCT-116 cells, 48 hours exposure, read-out: HCT-116 GI50 (μM) Mean ± S.E.
Experimental: as §1, §2

[3] = test system: Hep3B; assay: Growth inhibition assay (MTT), Hep3B; details: Homo sapiens, Hep3B cells, 48 hours exposure, read-out: Hep3B GI50 (μM) Mean ± S.E.
Experimental: as §1, §2

[4] = test system: MDA-MB-231; assay: Growth inhibition assay (MTT), MDA-MB-231; details: Homo sapiens, MDA-MB-231 cells, 48 hours exposure, read-out: MDA-MB-231 GI50 (μM) Mean ± S.E.
Experimental: as §1, §2

| IC50 [1] | GI50 [2] | GI50 [3] | GI50 [4] | Structure (SMILES) |
| --- | --- | --- | --- | --- |
| 2.5 ± 0.15 µM | 3.69 ± 0.24 µM | 10 to 30 µM | 10 to 30 µM | CN(C)CCNC(=O)c1ccc(CNC2=C(Cl)C(=O)c3ccccc3C2=O)cc1 [MPT0L132, 4-(((3-chloro-1,4-dioxo-1,4-dihydronaphthalen-2-yl)amino)methyl)-N-(2-(dimethylamino)ethyl)benzamide] |
| 1.67 ± 0.27 µM | 4.04 ± 0.65 µM | 10 to 30 µM | 10 to 30 µM | O=C(NCCN1CCCC1)c1ccc(CNC2=C(Cl)C(=O)c3ccccc3C2=O)cc1 [MPT0L133, 4-(((3-chloro-1,4-dioxo-1,4-dihydronaphthalen-2-yl)amino)methyl)-N-(2-(pyrrolidin-1-yl)ethyl)benzamide] |
| 2.52 ± 0.12 µM | 3.53 ± 0.24 µM | 10 to 30 µM | 10 to 30 µM | CCN(CC)CCNC(=O)c1ccc(CNC2=C(Cl)C(=O)c3ccccc3C2=O)cc1 [MPT0L134, 4-(((3-chloro-1,4-dioxo-1,4-dihydronaphthalen-2-yl)amino)methyl)-N-(2-(diethylamino)ethyl)benzamide] |

Reference: patent US11084786B2, “Compounds and pharmaceutical composition associated with ubiquitination-proteasome system” (CALGENT BIOTECHNOLOGY CO., LTD., priority 2015, dated 2021)
